pIC50: −log10 of the molar value.
Assays:
[1] = molecular target: T1, BTK enzyme (recombinant full-length BTK, hBTK) (Homo sapiens, UniProt Q06187); experiment: BTK enzyme activity assay, LANCE TR-FRET; type: biochemical; details: 50 pM hBTK, 2 μM biotin-A5-peptide, 25 μM ATP; 60 min compound & enzyme incubation; read-out: IC50 BTK activity value
T1 construct: recombinant protein from baculovirus-transfected Sf9 cells: full-length BTK, 6HIS-tag cleaved; 6HIS (cleaved yes); made in house; host or cells: baculovirus-transfected Sf9 cells

[2] = test system: HeLa cells; experiment: [3H]Adenosine uptake functional cellular assay; type: cell-based; details: Homo sapiens, HeLa, accumulation of [3H]adenosine into HeLa cells; compound range 10 μM to […]; read-out: Adenosine uptake inhibition IC50
Protocol: Compounds are also screened in an adenosine uptake functional cellular assay using the protocol described below. The adenosine uptake inhibition assay may be used to identify compounds with the potential for a negative cardiovascular side effect.
Adenosine uptake activity was determined by monitoring the accumulation of tritiated adenosine into HeLa cells (ATCC catalog # CCL-2) using a PMT-based radiometric detection instrument. […] These cells were incubated overnight at 37° C. in a humidified atmosphere with 5% (v/v) CO2. After this time the growth medium was removed and replaced with 40 μL assay medium comprising: Hanks balanced salts solution (HBSS; Thermo Fisher Catalog # SH30268.01)+5% (v/v) FBS. […] 40 μL of compound in the assay medium was dispensed into individual wells of the Cytostar-T plates and the plates were incubated for 30 minutes under ambient laboratory conditions. Following this incubation, 20 μL of 500 nM [^3H]adenosine (American Radiolabeled Chemicals Inc. Catalog # ART0287) was added in the assay medium and incubated for a further 60 minutes under ambient laboratory conditions. The amount of radiolabel accumulation was then determined using a Perkin Elmer Topcount NXT microplate reader. In brief, HeLa cells adhere to the bottom of the Cytostar-T plate, uptake of [^3H]adenosine into these cells brings the radiolabel into sufficient proximity to excite the scintillant in the base of the plates. These events are captured by single PMT, time-resolved coincidence counting. IC50 values were determined by 4 parameter robust fit of counts per second values vs. (Log10) compound concentrations.

T1 sequence (Q06187 whole entry): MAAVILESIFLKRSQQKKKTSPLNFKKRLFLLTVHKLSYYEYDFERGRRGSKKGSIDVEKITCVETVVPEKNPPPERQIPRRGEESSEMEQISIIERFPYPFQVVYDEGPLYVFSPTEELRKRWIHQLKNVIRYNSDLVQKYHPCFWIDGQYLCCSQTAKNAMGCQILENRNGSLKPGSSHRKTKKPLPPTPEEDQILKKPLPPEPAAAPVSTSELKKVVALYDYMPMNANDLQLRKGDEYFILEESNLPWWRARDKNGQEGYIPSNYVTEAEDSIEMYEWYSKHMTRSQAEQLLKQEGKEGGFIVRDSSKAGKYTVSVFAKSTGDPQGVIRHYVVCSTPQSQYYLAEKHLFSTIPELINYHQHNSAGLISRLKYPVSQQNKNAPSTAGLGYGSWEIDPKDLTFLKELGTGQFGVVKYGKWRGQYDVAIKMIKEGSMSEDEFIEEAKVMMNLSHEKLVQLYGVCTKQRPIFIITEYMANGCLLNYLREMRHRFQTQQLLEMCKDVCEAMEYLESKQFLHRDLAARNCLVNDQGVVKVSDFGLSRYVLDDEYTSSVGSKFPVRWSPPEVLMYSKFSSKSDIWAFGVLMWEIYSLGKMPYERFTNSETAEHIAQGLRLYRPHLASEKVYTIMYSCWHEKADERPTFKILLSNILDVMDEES

Structure (SMILES)	pIC50 [1]	pIC50 [2]
Nc1nccn2c([C@@H]3CC[C@H]4CCC(=O)N4C3)nc(-c3ccc(C(=O)Nc4cc(C(F)(F)F)ccn4)c(F)c3)c12 [Example 24, 4-{8-amino-3-[(6R,8aS)-3-oxooctahydroindolizin-6-yl]imidazo[1,5-a]pyrazin-1-yl}-2-fluoro-N-[4-(trifluoromethyl)pyridin-2-yl]benzamide]	9.35	7.17
C[C@H]1OC(=O)N2C[C@H](c3nc(-c4ccc(C(=O)Nc5cc(C(F)(F)F)ccn5)cc4F)c4c(N)nccn34)CC[C@@H]12 [Example 31, 4-{8-amino-3-[(1R,6R,8aS)-1-methyl-3-oxohexahydro[1,3]oxazolo[3,4-a]pyridin-6-yl]imidazo[1,5-a]pyrazin-1-yl}-3-fluoro-N-[4-(trifluoromethyl)pyridin-2-yl]benzamide]	10.02	6.99
C[C@@H]1OC(=O)N2C[C@H](c3nc(-c4ccc(C(=O)Nc5cc(C(F)(F)F)ccn5)cc4F)c4c(N)nccn34)CC[C@@H]12 [Example 33, 4-{8-amino-3-[(1S,6R,8aS)-1-methyl-3-oxohexahydro[1,3]oxazolo[3,4-a]pyridin-6-yl]imidazo[1,5-a]pyrazin-1-yl}-3-fluoro-N-[4-(trifluoromethyl)pyridin-2-yl]benzamide]	9.77	7.04
COc1cc(C(=O)Nc2cc(C3CC3)ccn2)ccc1-c1nc([C@@H]2CC[C@H]3CCC(=O)N3C2)n2ccnc(N)c12 [Example 38, 4-{8-amino-3-[(6R,8aS)-3-oxooctahydroindolizin-6-yl]imidazo[1,5-a]pyrazin-1-yl}-N-(4-cyclopropylpyridin-2-yl)-3-methoxybenzamide]	8.72	6.27
Nc1nccn2c([C@@H]3CC[C@H]4COCC(=O)N4C3)nc(-c3ccc(C(=O)Nc4cc(C(F)(F)F)ccn4)cc3F)c12 [Example 39]	9.92	7.24
Nc1nccn2c([C@@H]3CC[C@H]4CCC(=O)N4C3)nc(-c3ccc(C(=O)Nc4cc(C(F)(F)F)ccn4)c(Cl)c3)c12 [Example 42, 4-{8-amino-3-[(6R,8aS)-3-oxooctahydroindolizin-6-yl]imidazo[1,5-a]pyrazin-1-yl}-2-chloro-N-[4-(trifluoromethyl)pyridin-2-yl]benzamide]	9.28	7.06
Nc1nccn2c([C@H]3CC[C@@H]4CCCC(=O)N4C3)nc(-c3ccc(C(=O)Nc4cc(C(F)(F)F)ccn4)cc3F)c12 [Example 44, 4-{8-amino-3-[(3S,9aS)-6-oxooctahydro-2H-quinolizin-3-yl]imidazo[1,5-a]pyrazin-1-yl}-3-fluoro-N-[4-(trifluoromethyl)pyridin-2-yl]benzamide]	10.02	7.05
Nc1nccn2c([C@@H]3CC[C@H]4CCCC(=O)N4C3)nc(-c3ccc(C(=O)Nc4cc(C(F)(F)F)ccn4)cc3F)c12 [Example 45, 4-{8-amino-3-[(3R,9aR)-6-oxooctahydro-2H-quinolizin-3-yl]imidazo[1,5-a]pyrazin-1-yl}-3-fluoro-N-[4-(trifluoromethyl)pyridin-2-yl]benzamide]	8.77	6.64
C[C@@H]1OC(=O)N2C[C@H](c3nc(-c4ccc(C(=O)Nc5cc(C6CC6)ccn5)cc4)c4c(N)nccn34)CC[C@@H]12 [Example 46, 4-{8-amino-3-[(1S,6R,8aS)-1-methyl-3-oxohexahydro[1,3]oxazolo[3,4-a]pyridin-6-yl]imidazo[1,5-a]pyrazin-1-yl}-N-(4-cyclopropylpyridin-2-yl)benzamide]	9.28	7.15
C[C@H]1OC(=O)N2C[C@H](c3nc(-c4ccc(C(=O)Nc5cc(C6CC6)ccn5)cc4)c4c(N)nccn34)CC[C@@H]12 [Example 47, 4-{8-amino-3-[(1R,6R,8aS)-1-methyl-3-oxohexahydro[1,3]oxazolo[3,4-a]pyridin-6-yl]imidazo[1,5-a]pyrazin-1-yl}-N-(4-cyclopropylpyridin-2-yl)benzamide]	9.77	7.50
C[C@@H]1OC(=O)N2C[C@H](c3nc(-c4ccc(C(=O)Nc5cc(C(F)(F)F)ccn5)cc4)c4c(N)nccn34)CC[C@@H]12 [Example 48, 4-{8-amino-3-[(1S,6R,8aS)-1-methyl-3-oxohexahydro[1,3]oxazolo[3,4-a]pyridin-6-yl]imidazo[1,5-a]pyrazin-1-yl}-N-[4-(trifluoromethyl)pyridin-2-yl]benzamide]	9.85	7.03
CC1(C)OC(=O)N2C[C@H](c3nc(-c4ccc(C(=O)Nc5cc(C(F)(F)F)ccn5)cc4)c4c(N)nccn34)CC[C@H]21 [Example 52, 4-{8-amino-3-[(6R,8aS)-1,1-dimethyl-3-oxohexahydro[1,3]oxazolo[3,4-a]pyridin-6-yl]imidazo[1,5-a]pyrazin-1-yl}-N-[4-(trifluoromethyl)pyridin-2-yl]benzamide]	9.89	7.30
COc1cc(C(=O)Nc2cc(C3CC3)ccn2)ccc1-c1nc([C@@H]2CC[C@H]3[C@@H](C)OC(=O)N3C2)n2ccnc(N)c12 [Example 53, 4-{8-amino-3-[(1R,6R,8aS)-1-methyl-3-oxohexahydro[1,3]oxazolo[3,4-a]pyridin-6-yl]imidazo[1,5-a]pyrazin-1-yl}-N-(4-cyclopropylpyridin-2-yl)-3-methoxybenzamide]	9.30	6.53
Nc1nccn2c([C@H]3CC[C@@H]4COCCN4C3)nc(-c3ccc(C(=O)Nc4cc(C(F)(F)F)ccn4)cc3)c12 [Example 56, 4-{8-amino-3-[(7S,9aR)-octahydropyrido[2,1-c][1,4]oxazin-7-yl]imidazo[1,5-a]pyrazin-1-yl}-N-[4-(trifluoromethyl)pyridin-2-yl]benzamide]	8.74	6.94

Next, values leading:

pIC50 [1]	pIC50 [2]	Structure (SMILES)
9.66	6.73	Nc1nccn2c([C@@H]3CC[C@H]4CNCC(=O)N4C3)nc(-c3ccc(C(=O)Nc4cc(C(F)(F)F)ccn4)cc3)c12 [Example 40, 4-{8-amino-3-[(7R,9aS)-4-oxooctahydro-2H-pyrido[1,2-a]pyrazin-7-yl]imidazo[1,5-a]pyrazin-1-yl}-N-[4-(trifluoromethyl)pyridin-2-yl]benzamide]
8.40	6.10	Nc1nccn2c([C@H]3CC[C@@H]4CNCC(=O)N4C3)nc(-c3ccc(C(=O)Nc4cc(C(F)(F)F)ccn4)cc3)c12 [Example 41, 4-{8-amino-3-[(7S,9aR)-4-oxooctahydro-2H-pyrido[1,2-a]pyrazin-7-yl]imidazo[1,5-a]pyrazin-1-yl}-N-[4-(trifluoromethyl)pyridin-2-yl]benzamide]
9.96	7.29	C[C@H]1OC(=O)N2C[C@H](c3nc(-c4ccc(C(=O)Nc5cc(C(F)(F)F)ccn5)cc4)c4c(N)nccn34)CC[C@@H]12 [Example 49, 4-{8-amino-3-[(1R,6R,8aS)-1-methyl-3-oxohexahydro[1,3]oxazolo[3,4-a]pyridin-6-yl]imidazo[1,5-a]pyrazin-1-yl}-N-[4-(trifluoromethyl)pyridin-2-yl]benzamide]
9.59	7.35	CN1CC(=O)N2C[C@H](c3nc(-c4ccc(C(=O)Nc5cc(C(F)(F)F)ccn5)cc4)c4c(N)nccn34)CC[C@H]2C1 [Example 50, 4-{8-amino-3-[(7R,9aS)-2-methyl-4-oxooctahydro-2H-pyrido[1,2-a]pyrazin-7-yl]imidazo[1,5-a]pyrazin-1-yl}-N-[4-(trifluoromethyl)pyridin-2-yl]benzamide]
8.80	6.73	CN1CC(=O)N2C[C@@H](c3nc(-c4ccc(C(=O)Nc5cc(C(F)(F)F)ccn5)cc4)c4c(N)nccn34)CC[C@@H]2C1 [Example 51, 4-{8-amino-3-[(7S,9aR)-2-methyl-4-oxooctahydro-2H-pyrido[1,2-a]pyrazin-7-yl]imidazo[1,5-a]pyrazin-1-yl}-N-[4-(trifluoromethyl)pyridin-2-yl]benzamide]
9.55	≤ 5.00	Nc1nccn2c([C@H]3CC[C@H]4CNCC(=O)N4C3)nc(-c3ccc(C(=O)Nc4cc(C(F)(F)F)ccn4)cc3)c12 [Example 57, 4-{8-amino-3-[(7S,9aS)-4-oxooctahydro-2H-pyrido[1,2-a]pyrazin-7-yl]imidazo[1,5-a]pyrazin-1-yl}-N-[4-(trifluoromethyl)pyridin-2-yl]benzamide]
8.39	6.09	Nc1nccn2c([C@H]3CC[C@@H]4C[C@H](O)C(=O)N4C3)nc(-c3ccc(C(=O)Nc4cc(C(F)(F)F)ccn4)cc3)c12 [Example 58, 4-{8-amino-3-[(2S,6S,8aR)-2-hydroxy-3-oxooctahydroindolizin-6-yl]imidazo[1,5-a]pyrazin-1-yl}-N-[4-(trifluoromethyl)pyridin-2-yl]benzamide]
9.89	6.40	Nc1nccn2c([C@@H]3CC[C@H]4C[C@@H](O)C(=O)N4C3)nc(-c3ccc(C(=O)Nc4cc(C(F)(F)F)ccn4)cc3)c12 [Example 59, 4-{8-amino-3-[(2R,6R,8aS)-2-hydroxy-3-oxooctahydroindolizin-6-yl]imidazo[1,5-a]pyrazin-1-yl}-N-[4-(trifluoromethyl)pyridin-2-yl]benzamide]

From patent US20140206681A1, “BTK INHIBITORS” (priority 2013, published 2014)
